# Results reported in ChEMBL document CHEMBL1201862, “PubChem BioAssay data set” (2004).
#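 Dose response: 5 concentrations. Exposure: 48 h. Format: 96-well plates. Endpoint: linear interpolation; highest concentration if not reached. GI50 = concentration required for 50% inhibition of growth.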 Activity calls are given as the source filed them. Cut-off read from the data, not from the text of the source: active = GI50 up to about 1.1 µM and inactive = higher.
# Experiments:
# Test in all cases: growth of human tumour cells (NCI), 48 h
# U-251 = tested on: U-251
# MDA-MB-435 = tested on: MDA-MB-435
# SK-MEL-2 = tested on: SK-MEL-2
# OVCAR-5 = tested on: OVCAR-5
# HCT-116 = tested on: HCT-116
# SN12C = tested on: SN12C
# OVCAR-4 = tested on: OVCAR-4
# SW-620 = tested on: SW-620
# RPMI-8226 = tested on: RPMI-8226
# TK-10 = tested on: TK-10
# MDA-MB-231 = tested on: MDA-MB-231
# HL-60 = tested on: HL-60
# SF-268 = tested on: SF-268
# OVCAR-3 = tested on: OVCAR-3
# SF-295 = tested on: SF-295
# SK-MEL-28 = tested on: SK-MEL-28
# 786-0 = tested on: 786-0
# M14 = tested on: M14
# SR = tested on: SR
Structure (SMILES),GI50 (U-251),GI50 (MDA-MB-435),GI50 (SK-MEL-2),GI50 (OVCAR-5),GI50 (HCT-116),GI50 (SN12C),GI50 (OVCAR-4),GI50 (SW-620),GI50 (RPMI-8226),GI50 (TK-10),GI50 (MDA-MB-231),GI50 (HL-60),GI50 (SF-268),GI50 (OVCAR-3),GI50 (SF-295),GI50 (SK-MEL-28),GI50 (786-0),GI50 (M14),GI50 (SR)
NCCC(=O)NC(Cc1c[nH]cn1)C(=O)O (centres undefined),> 100 µM (inactive),> 100 µM (inactive),> 100 µM (inactive),> 100 µM (inactive),> 100 µM (inactive),> 100 µM (inactive),> 100 µM (inactive),> 100 µM (inactive),> 100 µM (inactive),> 100 µM (inactive),> 100 µM (inactive),> 100 µM (inactive),> 100 µM (inactive),> 100 µM (inactive),> 100 µM (inactive),> 100 µM (inactive),> 100 µM (inactive),> 100 µM (inactive),–
O=C(Cc1nc2ccc(C(=O)c3ccccc3)cc2nc1O)C(=O)Nc1ccc(C(F)(F)F)cc1[N+](=O)[O-],> 100 µM (inactive),–,> 100 µM (inactive),> 100 µM (inactive),96.2 µM (inactive),> 100 µM (inactive),> 100 µM (inactive),47.4 µM (inactive),42.5 µM (inactive),> 100 µM (inactive),–,31.6 µM (inactive),65 µM (inactive),38.7 µM (inactive),94.2 µM (inactive),82.6 µM (inactive),> 100 µM (inactive),> 100 µM (inactive),26.9 µM (inactive)
O=C1CCCCCCCCCCC1CN1CCCCC1 (centres undefined),75.3 µM (inactive),–,> 100 µM (inactive),89.7 µM (inactive),58.6 µM (inactive),> 100 µM (inactive),> 100 µM (inactive),> 100 µM (inactive),> 100 µM (inactive),38.4 µM (inactive),–,87.1 µM (inactive),> 100 µM (inactive),> 100 µM (inactive),46.9 µM (inactive),41.6 µM (inactive),> 100 µM (inactive),> 10 µM (inactive),> 100 µM (inactive)
C=CC1(c2ccc(Br)cc2)OCCCO1,> 100 µM (inactive),> 100 µM (inactive),> 100 µM (inactive),> 100 µM (inactive),> 100 µM (inactive),> 100 µM (inactive),> 100 µM (inactive),> 100 µM (inactive),> 100 µM (inactive),> 100 µM (inactive),> 100 µM (inactive),> 100 µM (inactive),> 100 µM (inactive),> 100 µM (inactive),> 100 µM (inactive),> 100 µM (inactive),> 100 µM (inactive),> 100 µM (inactive),> 100 µM (inactive)
COC1(OC)CC2C(=O)N(Cc3ccccc3)C1C(S(=O)(=O)c1ccccc1)C2C(C)S(=O)(=O)c1ccccc1 (centres undefined),> 100 µM (inactive),–,> 100 µM (inactive),> 100 µM (inactive),> 100 µM (inactive),> 100 µM (inactive),> 100 µM (inactive),> 100 µM (inactive),> 100 µM (inactive),> 100 µM (inactive),–,> 100 µM (inactive),> 100 µM (inactive),> 100 µM (inactive),> 100 µM (inactive),> 100 µM (inactive),> 100 µM (inactive),> 100 µM (inactive),> 100 µM (inactive)
C/C(=N/Nc1ccc([N+](=O)[O-])cc1[N+](=O)[O-])C(CC(C(=O)NCc1ccccc1)/C(C)=N\Nc1ccc([N+](=O)[O-])cc1[N+](=O)[O-])C(=O)NCc1ccccc1 (centres undefined),3.25 µM (inactive),–,10.1 µM (inactive),19.4 µM (inactive),4.88 µM (inactive),4.05 µM (inactive),2.4 µM (inactive),10.8 µM (inactive),14.7 µM (inactive),–,–,< 0.01 µM (active),4.42 µM (inactive),11.3 µM (inactive),5.89 µM (inactive),7.8 µM (inactive),3.24 µM (inactive),8.04 µM (inactive),9.1 µM (inactive)
CCCCNC(=O)Cn1c2ccc(Br)cc2c2nc3ccccc3nc21,> 100 µM (inactive),> 100 µM (inactive),> 100 µM (inactive),> 100 µM (inactive),64.3 µM (inactive),84.3 µM (inactive),–,> 100 µM (inactive),> 100 µM (inactive),> 100 µM (inactive),> 100 µM (inactive),–,97.1 µM (inactive),> 100 µM (inactive),> 100 µM (inactive),> 100 µM (inactive),> 100 µM (inactive),> 100 µM (inactive),0.589 µM (active)
N#Cc1ccc(C2NN=CC23C(=O)c2ccccc2OC3c2ccccc2)cc1 (centres undefined),23.8 µM (inactive),30.8 µM (inactive),29.5 µM (inactive),45.7 µM (inactive),20.5 µM (inactive),41.1 µM (inactive),33.8 µM (inactive),45.2 µM (inactive),20.8 µM (inactive),25.4 µM (inactive),57.4 µM (inactive),59.7 µM (inactive),52.4 µM (inactive),30.4 µM (inactive),34.4 µM (inactive),51.1 µM (inactive),32.1 µM (inactive),97.1 µM (inactive),24 µM (inactive)
COC(=O)C(=O)C(C(=O)C=C(C)C)C(=O)C(=O)Nc1cccc(C(C)=O)c1 (centres undefined),> 100 µM (inactive),–,> 100 µM (inactive),> 100 µM (inactive),> 100 µM (inactive),> 100 µM (inactive),> 100 µM (inactive),> 100 µM (inactive),> 100 µM (inactive),> 100 µM (inactive),–,> 100 µM (inactive),> 100 µM (inactive),> 100 µM (inactive),> 100 µM (inactive),> 100 µM (inactive),> 100 µM (inactive),> 100 µM (inactive),> 100 µM (inactive)
COc1ccc(C(=O)NCCC2CN(S(=O)(=O)C(F)(F)F)c3ccccc32)c(OC)c1 (centres undefined),30.3 µM (inactive),30.1 µM (inactive),53.6 µM (inactive),> 100 µM (inactive),35.8 µM (inactive),–,69.3 µM (inactive),35.8 µM (inactive),26.8 µM (inactive),–,> 100 µM (inactive),–,–,51.4 µM (inactive),68.9 µM (inactive),51.2 µM (inactive),53 µM (inactive),35.1 µM (inactive),> 100 µM (inactive)
CNC(=O)C1CCC(=O)N1CN(C(C)=O)c1ccccc1 (centres undefined),> 100 µM (inactive),> 100 µM (inactive),> 100 µM (inactive),> 100 µM (inactive),> 100 µM (inactive),> 100 µM (inactive),> 100 µM (inactive),> 100 µM (inactive),> 100 µM (inactive),> 100 µM (inactive),> 100 µM (inactive),–,> 100 µM (inactive),> 100 µM (inactive),> 100 µM (inactive),> 100 µM (inactive),> 100 µM (inactive),> 100 µM (inactive),13.6 µM (inactive)
CN(C)CCNc1nc2c(no[n+]2[O-])c2ccccc12.[O-][Cl+3]([O-])([O-])O,31.5 µM (inactive),18 µM (inactive),19.4 µM (inactive),38 µM (inactive),12.4 µM (inactive),25.6 µM (inactive),30.4 µM (inactive),11.1 µM (inactive),52.7 µM (inactive),24.9 µM (inactive),14.8 µM (inactive),–,4.42 µM (inactive),30.8 µM (inactive),28 µM (inactive),18.5 µM (inactive),18.7 µM (inactive),15.7 µM (inactive),15.1 µM (inactive)
O=c1[nH]c(=O)n(C2OC(CO)C(O)C2O)cc1OCCCc1ccccc1 (centres undefined),–,> 100 µM (inactive),> 100 µM (inactive),> 100 µM (inactive),> 100 µM (inactive),> 100 µM (inactive),> 100 µM (inactive),> 100 µM (inactive),–,> 100 µM (inactive),> 100 µM (inactive),> 100 µM (inactive),> 100 µM (inactive),> 100 µM (inactive),> 100 µM (inactive),> 100 µM (inactive),> 100 µM (inactive),> 100 µM (inactive),> 100 µM (inactive)
N#C/N=C(/N)NCc1ccccc1,> 100 µM (inactive),–,> 100 µM (inactive),> 100 µM (inactive),> 100 µM (inactive),> 100 µM (inactive),> 100 µM (inactive),–,> 100 µM (inactive),> 100 µM (inactive),–,> 100 µM (inactive),> 100 µM (inactive),> 100 µM (inactive),> 100 µM (inactive),> 100 µM (inactive),> 100 µM (inactive),> 100 µM (inactive),> 100 µM (inactive)
O=C(CC(C(=O)c1cccs1)c1ccccc1)c1ccccc1O (centres undefined),9.93 µM (inactive),3.1 µM (inactive),> 21.8 µM (inactive),> 100 µM (inactive),4.74 µM (inactive),> 20.7 µM (inactive),16.4 µM (inactive),46 µM (inactive),12.8 µM (inactive),> 41.1 µM (inactive),–,–,8.28 µM (inactive),83 µM (inactive),8.67 µM (inactive),20 µM (inactive),9.91 µM (inactive),4 µM (inactive),9.27 µM (inactive)
N#COc1ccc(Oc2ccc(OC#N)cc2)cc1,85.7 µM (inactive),–,> 100 µM (inactive),> 100 µM (inactive),> 100 µM (inactive),55.5 µM (inactive),> 100 µM (inactive),–,32 µM (inactive),> 100 µM (inactive),–,46.3 µM (inactive),> 100 µM (inactive),> 100 µM (inactive),98.4 µM (inactive),> 100 µM (inactive),39.1 µM (inactive),> 100 µM (inactive),24.1 µM (inactive)
